Test results taken from ChEMBL document CHEMBL1151153, “Chemistry of Sponges, VII. 11,19-Dideoxyfistularin 3 and 11-Hydroxyaerothionin, Bromotyrosine Derivatives from Pseudoceratina durissima” (J Nat Prod, 1990).
Activity calls are given as the source filed them.

What was measured:
Format in all cases: functional, organism-based
[1] = system: Staphylococcus aureus; assay: Antimicrobial activity against Staphylococcus aureus at 100 ug/disk
[2] = system: Candida albicans; assay: Antimicrobial activity against Candida albicans at 50 ug/disk
[3] = system: Bacillus subtilis; assay: Antimicrobial activity against Bacillus subtilis at 50 ug/disk
[4] = system: Staphylococcus aureus; assay: Antimicrobial activity against Staphylococcus aureus at 25 ug/disk
[5] = system: Bacillus subtilis; assay: Antimicrobial activity against Bacillus subtilis at 10 ug/disk
[6] = system: Candida albicans; assay: Antimicrobial activity against Candida albicans at 25 ug/disk

Measured: Activity

COC1=C(Br)[C@@H](O)[C@]2(C=C1Br)CC(C(=O)NCCC(O)CNC(=O)C1=NO[C@]3(C=C(Br)C(OC)=C(Br)[C@@H]3O)C1)=NO2 (some centres not stated)
active: [1] | [2] | [3]

COC1=C(Br)[C@H](O)[C@@]2(C=C1Br)CC(C(=O)NCCCCNC(=O)C1=NO[C@]3(C=C(Br)C(OC)=C(Br)[C@@H]3O)C1)=NO2
active: [1] | [2] | [3]

COC1=C(Br)[C@@H](O)[C@]2(C=C1Br)CC(C(=O)NCCc1cc(Br)c(OCCCNC(=O)C3=NO[C@]4(C=C(Br)C(OC)=C(Br)[C@@H]4O)C3)c(Br)c1)=NO2
active: [4] | [5] | [6]

COC1=C(Br)[C@H](O)[C@@]2(C=C1Br)CC(C(=O)NCCCCCNC(=O)C1=NO[C@]3(C=C(Br)C(OC)=C(Br)[C@@H]3O)C1)=NO2
active: [1] | [2] | [3]
